Assay results from patent US20260206752A1, “MOLECULE HAVING PESTICIDAL UTILITY AND PROCESSES RELATED THERETO” (CORTEVA AGRISCIENCE LLC, priority 2022, published 2026).

What was measured:
M. incognita = test: Residuality test in soil against root knot nematode; type: in vivo, Meloidogyne incognita; settings: 1250 g ai/ha on bare soil, aged four weeks, then seedlings and 4,000 J2s, evaluated after 14 days
Description: A residuality test was conducted to compare the residual control or persistence of S1, R1, C1, C2, C3, C4, and C5 in soil. Each compound was applied to a bare sandy loam soil (without plant or nematode) in a 3-inch pot at 1250 g ai/ha. The treated soils were kept in a Greenhouse (temperature 27° C.) under regular irrigation for four weeks. At the end of the four weeks, six-day old cucumber (Cucumis sativus) seedlings were transplanted into the treated soil and inoculated with 4,000 second stage juveniles of M. incognita. Each treatment was replicated four times. The inoculated plants were kept in a Greenhouse for 14 days (temperature 27° C.) before evaluating the amount of root damage (galls) called Galling Index (GI) based on a scale of 0-10; where 0=no galls (100% nematode control), and 10=maximum galls (no nematode control). The GI were converted to % control using the formula ((10−GI)×10); where GI=Gall Index. The data were analyzed by Analysis of Variance using JMP (John's Macintosh Project) statistical software and the means were separated using Tukey's HSD (α=0.05).

Meloidogyne incognita [1] = test: Root knot nematode comparative bioactivity test at 600 g ai/ha, drench on cucumber seedlings; type: in vivo; settings: 14 days after inoculation, (10−GI)×10
Description: We carried out an experiment to evaluate comparative bioactivity of S1, C1, C2, C3, C4, and C5 against the root knot nematode, Meloidogyne incognita. Each compound was tested at 600 grams of active ingredient per hectare (g ai/ha) and was replicated three times. Cucumber seeds (Cucumis sativus) were planted in a sandy loam soil in 3-inch pots. After six (6) days of planting, the seedlings were treated with the test compounds dissolved in 5% acetone in water by drench application. The plants were inoculated with 4,000 second stage juveniles (J2s) of M. incognita. The inoculated plants were kept in a Greenhouse for 14 days (temperature 27° C.) before evaluating the amount of root damage (galls) called Galling Index (GI) based on a scale of 0-10; where 0=no galls (100% nematode control), and 10=maximum galls (no nematode control). The GI was converted to % nematode control using the formula ((10−GI)×10); where GI=Gall Index. The data were analyzed by Analysis of Variance using JMP (John's Macintosh Project) statistical software and the means were separated using Tukey's HSD (α=0.05).

Meloidogyne incognita [2] = test: Root Knot Nematode (RKN) test on cucumber seedlings in pots, Galling Index converted to % control, EC by probit analysis; type: in vivo; settings: RKN EC50
Description: (§1) We conducted an experiment to evaluate comparative bioactivity of S1, R1, and B1 against the root knot nematode (RKN), Meloidogyne incognita. Each of S1, R1, and B1 were tested at six rates: 125, 62.5, 31.25, 15.6, 7.8, 3.9, and 2 ppm. Cucumber seeds (Cucumis sativus) were planted in a sandy loam soil in 3-inch pots. After 6 days of germination, the seedlings were treated with the test compounds dissolved in 5% acetone in water. The treated plants were inoculated with 4,000 second stage juveniles (J2s) of M. incognita. Each experimental unit was replicated three times. The inoculated plants were kept in a Greenhouse for 14 days (about 27° C.) before evaluating the amount of root damage (galls) called Galling Index (GI) based on a scale of 0-10; where 0=no galls (100% control), and 10=maximum galls (no control). The GI was converted to % control using the formula (10−GI)×10; where GI=Gall Index. Effective concentration (EC) values based on the % control of the nematode by S1, R1 and B1 were calculated by probit analysis.

[3] = tested on: root knot nematode, soybean cyst nematode, root lesion nematode; test: Average of Delta % over the RKN, SCN and RLN tests of Example One; type: in vivo
Description: as §1, with “The GI was converted to % control using the formula (10−GI)×10; where GI=Gall Index.” left out, “analysis. […]” for “analysis.”
We carried out an in-vitro experiment to compare activity of S1, R1, and B1 with each other against the root lesion nematode (RLN), Pratylechus penetrans. […] Aliquots of 1 mL of the nematode suspension was evaluated under a microscope for mortality after 48 hours. RLN were counted, and the number of dead and active nematodes was used to calculate % mortality from which lethal concentration (LC) values were generated.

Pratylechus penetrans = test: Root Lesion Nematode (RLN) in-vitro mortality test; type: in vivo; settings: RLN LC50
Description: We carried out an in-vitro experiment to compare activity of S1, R1, and B1 with each other against the root lesion nematode (RLN), Pratylechus penetrans. Each of S1, R1, and B1 were tested at six rates: 62.5, 15.6, 4, 1, 0.25, and 0 ppm (UTC) with three replications of each treatment. Equal volume of nematode suspension was added to an equal volume of each of S1, R1, and B1 dissolved in 0.5% DMSO (dimethyl sulfoxide) in water in 25 mL vials. The treated nematode suspension was incubated at room temperature (about 25° C.) on a shaker (95 RPM). Aliquots of 1 mL of the nematode suspension was evaluated under a microscope for mortality after 48 hours. RLN were counted, and the number of dead and active nematodes was used to calculate % mortality from which lethal concentration (LC) values were generated.

[4] = tested on: Heterodera glycines second stage juveniles (J2); test: Soybean Cyst Nematode (SCN) in-vitro mortality test; type: in vivo; settings: SCN LC50
Description: We carried out an in-vitro experiment to compare activity of S1, R1, and B1 with each other against the soybean cyst nematode (SCN): Heterodera glycines second stage juveniles (J2). Each of S1, R1, and B1 were tested at six rates: 62.5, 15.6, 4, 1, 0.25, and 0 ppm (untreated control, UTC with three replications of each treatment. Equal volume of nematode suspension was added to an equal volume of compound dissolved in 0.5% DMSO (dimethyl sulfoxide) in water. The nematode plus compound was incubated at room temperature (about 25° C.) on a shaker at 95 revolutions per minutes (RPM). Aliquots of 0.5 milliliters (mL) of the nematode suspension were evaluated under a microscope for mortality after 48 hours of incubation. SCN J2s were counted, and the number of dead and active nematodes was used to calculate % SCN mortality which was used to generate lethal concentration (LC) values by probit analysis.

| Compound | Mean Percent Control (M. incognita) [%] | Mean Percent Control (Meloidogyne incognita [1]) [%] | Delta % vs B1 (Meloidogyne incognita [2]) [%] | Delta % on average, S1 versus B1 [3] [%] | Delta % vs B1 (Pratylechus penetrans) [%] | Delta % vs B1 [4] [%] |
| --- | --- | --- | --- | --- | --- | --- |
| C[C@H](NC(=O)c1ccoc1Cl)C(C)(C)C [Molecule C1] | 27.5 | 54 |  |  |  |  |
| CCC(CC)[C@H](C)NC(=O)c1ccoc1Cl [Molecule S1, (S)-2-chloro-N-(3-ethylpentan-2-yl)furan-3-carboxamide] |  |  | 240 | 564 | 259 | 1194 |
